Data as given in patent US11760754B2, “Heterocyclic mitochondrial activity inhibitors and uses thereof” (UNIVERSITÉ DE MONTRÉAL, priority 2017, dated 2023).
Like-named read-outs stand apart in the source and are kept apart here.

Experiments:
[1] = tested on: MLL-AF9 cells; assay: MLL-AF9 leukemia cell growth inhibition, dose-response viability assay (CellTiterGlo); type: cell-based, murine; conditions: read-out: MLL-AF9 EC50
Procedure: (§1) The potency of the compounds of Example 6 at inhibiting OCI-AML3 cell growth was tested using a procedure similar to that described for Mutritinib in Example 1. […] Murine MLL-AF9 leukemia cells (female cells) were generated by infection with VSV-G-pseudotyped MSCV MLL-AF9 IRES Puro (subcloned from a construct by Frédéric Barabé, Laval U, Quebec, QC, Canada).
(§2) Compounds were added to seeded cells in serial dilutions from 10 μM to 0.5 nM, in duplicates or quadruplicates.

[2] = tested on: OCI-AML3 cells; assay: OCI-AML3 cell growth inhibition, dose-response viability assay (CellTiterGlo); type: cell-based; conditions: for EC50: read-out: AML-3 EC50; for sensitivity of OCI-AML3 relative to OCI-AML5: dose-response curves OCI-AML3 and OCI-AML5
Procedure: Cell dose-response viability assays. […] In the initial screen, compounds were added to seeded cells in serial dilutions (10 dilutions, 1:3, starting from […] 20 μM), in duplicates.
as §1, §2

[3] = Homo sapiens, OCI-AML-3, 144 h, OCI-AML3 cells, 6 days of culture, CellTiterGlo

SMILES | EC50 ([1]; Mus musculus, MLL-AF9, 120 h) | EC50 ([2]; Homo sapiens, OCI-AML-3, 144 h) | also measured
FC(F)(F)c1ccc(/C=C/c2nc(COc3ccc(CCCCn4ccnn4)cc3)co2)cc1 [Compound 1, (E)-4-((4-(4-(1H-1,2,3-triazol-1-yl)butyl)phenoxy)methyl-2-(4-trifluoromethyl)styryl)oxazole, reference compound] | – | – | EC50 ([1]; Mus musculus, 120 h, MLL-AF9 cells, 5 days of culture, CellTiterGlo): 50 to 100 nM; EC50 [2, 3]: 100 to 500 nM
Fc1cc(Br)ccc1/C=C/c1nc(COc2ccc(CCCCn3ccnn3)cc2)co1 [Compound 3A, (E)-((4-(4-(1H-1,2,3-triazol-1-yl)butyl)phenoxy)methyl)-2-(4-bromo-2-fluorostyryl)oxazole] | – | – | EC50 ([1]; MLL-AF9 cells, 5 days of culture, CellTiterGlo): < 50 nM; EC50 ([2]; OCI-AML3 cells, 6 days of culture, CellTiterGlo): < 50 nM
C[Si](C)(C)c1cn(CCCCc2ccc(OCc3coc(/C=C/c4ccc(Br)cc4F)n3)cc2)nn1 [Compound 3B, (E)-2-(4-Bromo-2-fluorostyryl)-4-((4-(4-(4-(trimethylsilyl)-1H-1,2,3-triazol-1-yl)butyl)phenoxy)methyl)oxazole] | 100 to 500 nM | – | EC50 [2, 3]: 500 to 1000 nM
CCOC(=O)c1nnn(CCCCc2ccc(OCc3coc(/C=C/c4ccc(C(F)(F)F)cc4)n3)cc2)c1C(=O)OCC [Compound 6, (E)-diethyl 1-(4-(4-((2-(4-(trifluoromethyl)styryl)oxazol-4-yl)methoxy)phenyl)butyl)-1H-1,2,3-triazole-4,5-dicarboxylate] | 1000 to 10000 nM | 1000 to 10000 nM | –
NCCc1cn(CCCCc2ccc(OCc3coc(/C=C/c4ccc(C(F)(F)F)cc4)n3)cc2)nn1 [Compound 13, (E)-2-(1-(4-(4-((2-(4-(trifluoromethyl)styryl)oxazol-4-yl)methoxy)phenyl)butyl)-1H-1,2,3-triazol-4-yl)ethanamine] | 1000 to 10000 nM | 1000 to 10000 nM | –
O=S1(=O)CCN(Cc2cnnn2CCCCc2ccc(OCc3coc(/C=C/c4ccc(C(F)(F)F)cc4)n3)cc2)CC1 [Compound 15, (E)-4-((1-(4-(4-((2-(4-(trifluoromethyl)styryl)oxazol-4-yl)methoxy)phenyl)butyl)-1H-1,2,3-triazol-5-yl)methyl)thiomorpholine 1,1-dioxide] | 100 to 500 nM | 500 to 1000 nM | –
O=C(CCCn1ccnn1)c1ccc(OCc2coc(/C=C/c3ccc(C(F)(F)F)cc3)n2)cc1 [Compound 16, (E)-4-(1H-1,2,3-triazol-1-yl)-1-(4-((2-(4-(trifluoromethyl)styryl)oxazol-4-yl)methoxy)phenyl)butan-1-one] | 100 to 500 nM | 1000 to 10000 nM | –
OC(CCCn1ccnn1)c1ccc(OCc2coc(/C=C/c3ccc(OC(F)(F)F)cc3)n2)cc1 (centres unmarked) [Compound 19, (E)-4-(1H-1,2,3-triazol-1-yl)-1-(4-((2-(4-(trifluoromethoxy)styryl)oxazol-4-yl)methoxy)phenyl)butan-1-ol] | 100 to 500 nM | 100 to 500 nM | –
COc1cc2c(cc1OC)[C@@H]1C(=O)c3ccc4c(c3O[C@@H]1CO2)C=CC(C)(C)O4 [Deguelin, reference compound] | – | – | sensitivity of OCI-AML3 relative to OCI-AML5 [2]: more sensitive than OCI-AML5
CC[C@H]1/C=C/C=C/C[C@@H](C)[C@H](O)[C@@](C)(O)C(=O)[C@@H](C)[C@H](O)[C@@H](C)C(=O)[C@@H](C)[C@H](O)[C@@H](C)/C=C/C(=O)O[C@@H]2[C@H](C)[C@H](CC1)O[C@]1(CC[C@H](C)[C@H](C[C@@H](C)O)O1)[C@H]2C [Oligomycin, reference compound] | – | – | sensitivity of OCI-AML3 relative to OCI-AML5 [2]: more sensitive than OCI-AML5
C=C(C)[C@H]1Cc2c(ccc3c2O[C@@H]2COc4cc(OC)c(OC)cc4[C@@H]2C3=O)O1 [Rotenone, reference compound] | – | – | sensitivity of OCI-AML3 relative to OCI-AML5 [2]: more sensitive than OCI-AML5
CNC(=O)CN1CCC(Oc2cc3c(Nc4cccc(Cl)c4F)ncnc3cc2OC)CC1 [Sapitinib, reference compound] | – | – | OCI-AML3 cells sensitive to the compound (dose response) ([2]; OCI-AML3 cells): not

Second part, led by results:

EC50 ([1]; Mus musculus, MLL-AF9, 120 h) | EC50 ([2]; Homo sapiens, OCI-AML-3, 144 h) | SMILES | also measured
100 to 500 nM | 100 to 500 nM | FC(F)(F)Oc1ccc(/C=C/c2nc(COc3ccc(CCCCn4ccnn4)cc3)co2)cc1 [Compound 2] | –
500 to 1000 nM | 1000 to 10000 nM | OCCc1cn(CCCCc2ccc(OCc3coc(/C=C/c4ccc(C(F)(F)F)cc4)n3)cc2)nn1 [Compound 4, (E)-2-(1-(4-(4-((2-(4-Trifluoromethyl)styryl)oxazol-4-yl)methoxy)phenyl)butyl-1H-1,2,3-triazol-4-yl)ethanol] | –
100 to 500 nM | 1000 to 10000 nM | OCCCCc1cn(CCCCc2ccc(OCc3coc(/C=C/c4ccc(C(F)(F)F)cc4)n3)cc2)nn1 [Compound 5] | –
500 to 1000 nM | 1000 to 10000 nM | CNCc1cn(CCCCc2ccc(OCc3coc(/C=C/c4ccc(C(F)(F)F)cc4)n3)cc2)nn1 [Compound 7, (E)-N-methyl-1-(1-(4-(4-((2-(4-(trifluoromethyl)styryl)oxazol-4-yl)methoxy)phenyl)butyl)-1H-1,2,3-triazol-4-yl)methanamine] | –
100 to 500 nM | 500 to 1000 nM | OC1(c2cn(CCCCc3ccc(OCc4coc(/C=C/c5ccc(C(F)(F)F)cc5)n4)cc3)nn2)CCCC1 [Compound 8, (E)-1-(1-(4-(4-((2-(4-(trifluoromethyl)styryl)oxazol-4-yl)methoxy)phenyl)butyl)-1H-1,2,3-triazol-4-yl)cyclopentanol] | –
500 to 1000 nM | 1000 to 10000 nM | OCc1nnn(CCCCc2ccc(OCc3coc(/C=C/c4ccc(C(F)(F)F)cc4)n3)cc2)c1CO [Compound 9, (E)-(1-(4-(4-((2-(4-(trifluoromethyl)styryl)oxazol-4-yl)methoxy)phenyl)butyl)-1H-1,2,3-triazole-4,5-diyl)dimethanol] | –
< 50 nM | 100 to 500 nM | O=S1(=O)CCN(Cc2cn(CCCCc3ccc(OCc4coc(/C=C/c5ccc(C(F)(F)F)cc5)n4)cc3)nn2)CC1 [Compound 10, (E)-4-((1-(4-(4-((2-(4-(trifluoromethyl)styryl)oxazol-4-yl)methoxy)phenyl)butyl)-1H-1,2,3-triazol-4-yl)methyl)thiomorpholine 1,1-dioxide] | –
1000 to 10000 nM | 1000 to 10000 nM | Fc1cc(C(F)(F)F)ccc1CCc1nc(COc2ccc(CCCCn3ccnn3)cc2)co1 [Compound 11, 4-((4-(4-(1H-1,2,3-triazol-1-yl)butyl)phenoxy)methyl)-2-(2-fluoro-4-(trifluoromethyl)phenethyl)oxazole] | –
100 to 500 nM | 500 to 1000 nM | C#CCNC(=O)CCCCc1cn(CCCCc2ccc(OCc3coc(/C=C/c4ccc(C(F)(F)F)cc4)n3)cc2)nn1 [Compound 12, (E)-N-(prop-2-yn-1-yl)-5-(1-(4-(4-((2-(4-(trifluoromethyl)styryl)oxazol-4-yl)methoxy)phenyl)butyl)-1H-1,2,3-triazol-4-yl)pentanamide] | –
500 to 1000 nM | 1000 to 10000 nM | C#CCCC(=O)NCCc1cn(CCCCc2ccc(OCc3coc(/C=C/c4ccc(C(F)(F)F)cc4)n3)cc2)nn1 [Compound 14, (E)-N-(2-(1-(4-(4-((2-(4-(trifluoromethyl)styryl)oxazol-4-yl)methoxy)phenyl)butyl)-1H-1,2,3-triazol-4-yl)ethyl)pent-4-ynamide] | –
50 to 100 nM | 100 to 500 nM | OC(CCCn1ccnn1)c1ccc(OCc2coc(/C=C/c3ccc(C(F)(F)F)cc3)n2)cc1 (centres unmarked) [Compound 17, (E)-4-(1H-1,2,3-triazol-1-yl)-1-(4-((2-(4-(trifluoromethyl)styryl)oxazol-4-yl)methoxy)phenyl)butan-1-ol] | –
500 to 1000 nM | 1000 to 10000 nM | O=C(CCCn1ccnn1)c1ccc(OCc2coc(/C=C/c3ccc(OC(F)(F)F)cc3)n2)cc1 [Compound 18, (E)-4-(1H-1,2,3-triazol-1-yl)-1-(4-((2-(4-(trifluoromethoxy)styryl)oxazol-4-yl)methoxy)phenyl)butan-1-one] | –
100 to 500 nM | 500 to 1000 nM | O=C(CCCn1ccnn1)c1ccc(OCc2coc(/C=C/c3ccc(Br)cc3F)n2)cc1 [Compound 20, (E)-1-(4-((2-(4-bromo-2-fluorostyryl)oxazol-4-yl)methoxy)phenyl)-4-(1H-1,2,3-triazol-1-yl)butan-1-one] | –
50 to 100 nM | 100 to 500 nM | OC(CCCn1ccnn1)c1ccc(OCc2coc(/C=C/c3ccc(Br)cc3F)n2)cc1 (centres unmarked) [Compound 21, (E)-1-(4-((2-(4-bromo-2-fluorostyryl)oxazol-4-yl)methoxy)phenyl)-4-(1H-1,2,3-triazol-1-yl)butan-1-ol] | –
100 to 500 nM | 500 to 1000 nM | O=C(CCCn1ccnn1)c1ccc(OCc2coc(/C=C/c3ccc(C(F)(F)F)cc3F)n2)cc1 [Compound 22, (E)-1-(4-((2-(2-fluoro-4-(trifluoromethyl)styryl)oxazol-4-yl)methoxy)phenyl)-4-(1H-1,2,3-triazol-1-yl)butan-1-one] | –
500 to 1000 nM | – | Fc1cc(C(F)(F)F)ccc1/C=C/c1nc(COc2ccc(CCCCn3cnnc3)cc2)co1 [Compound 135, (E)-4-((4-(4-(4H-1,2,4-triazol-4-yl)butyl)phenoxy)methyl)-2-(2-fluoro-4-(trifluoromethyl)styryl)oxazole] | –
100 to 500 nM | – | O=CNCCCCc1ccc(OCc2coc(/C=C/c3ccc(C(F)(F)F)cc3F)n2)cc1 [Compound 136, (E)-N-(4-(4-((2-(2-fluoro-4-(trifluoromethyl)styryl)oxazol-4-yl)methoxy)phenyl)butyl)formamide] | –
500 to 1000 nM | – | O=S1(=O)CCN(CCCCc2ccc(OCc3coc(/C=C/c4ccc(C(F)(F)F)cc4F)n3)cc2)CC1 [Compound 137, (E)-4-(4-(4-((2-(2-fluoro-4-(trifluoromethyl)styryl)oxazol-4-yl)methoxy)phenyl)butyl)thiomorpholine 1,1-dioxide] | –
